# Laboratory results: article PMC5797111, “Molecular and Functional Characterization of pheromone binding protein 1 from the Oriental Fruit Moth, Grapholita molesta (Busck)” (Scientific Reports, 2018)
# Key:
# GmolPBP1 [1] = molecular target: T1, GmolPBP1 (Grapholita molesta, UniProt A0A2R4SBD6); test: 1-NPN fluorescence binding (titration, Scatchard plot); conditions: 2 μM GmolPBP1 in 20 mM Tris-HCl pH 7.4, 1-NPN 2–16 μM; read-out: dissociation constant of the GmolPBP1/1-NPN complex
# Procedure: (§1) To understand the binding properties of the GmolPBP1 with four sex pheromone components of G. molesta and the Codlemone of C. pomonella. We expressed and purified the protein (Figure S1). Then, a competitive binding assay was performed with 1-NPN as the fluorescence probe. The probe was excited at 337 nm and emission spectra were recorded between 370 and 500 nm. The fluorescent intensity of the 1-NPN alone was fairly low, then a strong blue shift, and peaked at about 410 nm with the presence of GmolPBP1. The intensity of this peak was used to determine the dissociation constant of the GmolPBP1/1-NPN complex.
# Emission fluorescence spectra were performed on an F-4600 fluorescence Spectrophotometer (Hitachi, Japan) in a 1 cm light path quartz cuvette with 10 nm slit width for both excitation and emission. The excitation wavelength was set at 337 nm and emission spectra were recorded between 370 and 500 nm. […] The fluorescence intensities at the maximum fluorescence emission between 370 and 500 nm were plotted against the concentrations of added 1-NPN. […] The concentrations of bound 1-NPN were evaluated from the values of fluorescence intensity assuming that the protein was 100% active with a stoichiometry of 1:1 (protein: ligand) at saturation. […]
# GmolPBP1 [2] = molecular target: T1, GmolPBP1; test: Fluorescence competitive binding assay with 1-NPN as probe; conditions: for IC50 / Ki: 1-NPN and GmolPBP1 both at 2 μM; for IC50 / binding affinity to GmolPBP1 (in words): ligands 1 to 10 μM; for IC50: read-out: IC50 (ligand concentration displacing half of the initial fluorescence intensity of the GmolPBP1/1-NPN complex); for Ki: calculated from the IC50 value, read-out: Ki (dissociation constant); for binding affinity to GmolPBP1 (in words): displacement of 1-NPN
# Procedure: as §1
# The displacement of 1-NPN by different sex pheromone components was measured for GmolPBP1 in the competitive binding assy. These ligands included the four sex pheromone components of G. molesta (Z)-8-dodecenyl acetate, (E)-8-dodecenyl acetate, (Z)-8-dodecenyl alcohol and 1-dodecanol as well as the C. pomonella Codlemone. […] The dissociation constants for these three compounds are 1.73 ± 0.31, 2.25 ± 0.63 and 1.88 ± 0.25 μM, respectively.
# Emission fluorescence spectra were performed on an F-4600 fluorescence Spectrophotometer (Hitachi, Japan) in a 1 cm light path quartz cuvette with 10 nm slit width for both excitation and emission. The excitation wavelength was set at 337 nm and emission spectra were recorded between 370 and 500 nm. The fluorescent probe N-phenyl-1-naphthylamine (1-NPN) and the ligands used in the binding assay were dissolved in spectrophotometric-grade methanol to yield a 1-mM stock solution (for the sources of these chemicals, see Table S1). To determine the dissociation constant between 1-NPN and GmolPBP1, 2 μM GmolPBP1 dissolved in 20 mM Tris-HCl pH 7.4 was titrated with 1 mM 1-NPN to final concentrations of 2–16 μM. The fluorescence intensities at the maximum fluorescence emission between 370 and 500 nm were plotted against the concentrations of added 1-NPN. The curve was linearized using Scatchard plots. The concentrations of bound 1-NPN were evaluated from the values of fluorescence intensity assuming that the protein was 100% active with a stoichiometry of 1:1 (protein: ligand) at saturation. The affinities of the selected ligands were measured by competitive binding assays by adding the ligands from 1 to 10 μM into the 1-NPN/GmolPBP1 solution (both at 2 μM). The emission spectra were recorded between 370 and 500 nm and the maximum fluorescence intensities were plotted against the ligand concentrations after normalization relative to the intensity at zero ligand. For these competitor ligands, the dissociation constants were computed from the corresponding IC50 values using the quation: Ki = [IC50]/(1 + [1-NPN]/K1-NPN), where [1-NPN] is the free concentration of 1-NPN and K1-NPN is the dissociation constant of the protein complex/1-NPN. All values reported were collected in three independent measurements.
# GmolPBP2 = molecular target: GmolPBP2; parameters: method as in doi:10.1016/S2095-3119(13)60686-3; conditions: cited from earlier work
# CpomPBP2 = tested on: CpomPBP2; parameters: method as in PMID 27491022, PMID 27709920; conditions: cited from earlier work
# CpomPBP1 = tested on: CpomPBP1; parameters: method as in PMID 27491022, PMID 27709920; conditions: cited from earlier work
# male G. molesta = tested on: male G. molesta; parameters: method as in earlier work; conditions: added to blend of (Z)-8-dodecenyl acetate (85.5%), (E)-8-dodecenyl acetate (5.5%) and (Z)-8-dodecenyl alcohol (9%); cited from earlier work
# T1 sequence (A0A2R4SBD6 entry or part of it): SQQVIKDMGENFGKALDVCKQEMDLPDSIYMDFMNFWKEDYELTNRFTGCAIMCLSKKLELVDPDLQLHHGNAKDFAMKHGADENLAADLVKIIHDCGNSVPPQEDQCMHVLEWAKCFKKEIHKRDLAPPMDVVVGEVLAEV
Structure (SMILES),Kd (GmolPBP1 [1]),IC50 (GmolPBP1 [2]),Ki (GmolPBP1 [2]),binding affinity to GmolPBP1 (in words) (GmolPBP1 [2]),Ki (GmolPBP2),affinity to CpomPBP2 (in words) (CpomPBP2),affinity to CpomPBP1 (in words) (CpomPBP1),increase of trap catches of male G. molesta over the G. molesta blend alone (male G. molesta)
"c1ccc(Nc2cccc3ccccc23)cc1 [1-NPN, N-phenyl-1-naphthylamine]",2.41 ± 0.25 µM,,,,,,,
CCCCCCCCCCCCO [1-dodecanol],,3.2 ± 0.89 µM,2.25 ± 0.63 µM,strong affinity,,,,
CCC/C=C/CCCCCCCOC(C)=O [(E)-8-dodecenyl acetate],,,,could not displace half of the total 1-NPN,1.1 ± 0.05 µM,,,
CCC/C=C\CCCCCCCOC(C)=O [(Z)-8-dodecenyl acetate],,,,could not displace half of the total 1-NPN,1.09 ± 0.04 µM,,,
CCC/C=C\CCCCCCCO [(Z)-8-dodecenyl alcohol],,2.46 ± 0.43 µM,1.73 ± 0.31 µM,strong affinity,,,,
"C/C=C/C=C/CCCCCCCO [Codlemone, E, E-8, 10-Dodecadienol]",,2.66 ± 0.35 µM,1.88 ± 0.25 µM,strong affinity,,poor affinity,strong affinity,two- to three-fold
